The target in this test is T1, human recombinant HDAC6 (Homo sapiens, UniProt Q9UBN7).
T1 construct: purchased BPS Bioscience 50006
T1 sequence (Q9UBN7 1-1215): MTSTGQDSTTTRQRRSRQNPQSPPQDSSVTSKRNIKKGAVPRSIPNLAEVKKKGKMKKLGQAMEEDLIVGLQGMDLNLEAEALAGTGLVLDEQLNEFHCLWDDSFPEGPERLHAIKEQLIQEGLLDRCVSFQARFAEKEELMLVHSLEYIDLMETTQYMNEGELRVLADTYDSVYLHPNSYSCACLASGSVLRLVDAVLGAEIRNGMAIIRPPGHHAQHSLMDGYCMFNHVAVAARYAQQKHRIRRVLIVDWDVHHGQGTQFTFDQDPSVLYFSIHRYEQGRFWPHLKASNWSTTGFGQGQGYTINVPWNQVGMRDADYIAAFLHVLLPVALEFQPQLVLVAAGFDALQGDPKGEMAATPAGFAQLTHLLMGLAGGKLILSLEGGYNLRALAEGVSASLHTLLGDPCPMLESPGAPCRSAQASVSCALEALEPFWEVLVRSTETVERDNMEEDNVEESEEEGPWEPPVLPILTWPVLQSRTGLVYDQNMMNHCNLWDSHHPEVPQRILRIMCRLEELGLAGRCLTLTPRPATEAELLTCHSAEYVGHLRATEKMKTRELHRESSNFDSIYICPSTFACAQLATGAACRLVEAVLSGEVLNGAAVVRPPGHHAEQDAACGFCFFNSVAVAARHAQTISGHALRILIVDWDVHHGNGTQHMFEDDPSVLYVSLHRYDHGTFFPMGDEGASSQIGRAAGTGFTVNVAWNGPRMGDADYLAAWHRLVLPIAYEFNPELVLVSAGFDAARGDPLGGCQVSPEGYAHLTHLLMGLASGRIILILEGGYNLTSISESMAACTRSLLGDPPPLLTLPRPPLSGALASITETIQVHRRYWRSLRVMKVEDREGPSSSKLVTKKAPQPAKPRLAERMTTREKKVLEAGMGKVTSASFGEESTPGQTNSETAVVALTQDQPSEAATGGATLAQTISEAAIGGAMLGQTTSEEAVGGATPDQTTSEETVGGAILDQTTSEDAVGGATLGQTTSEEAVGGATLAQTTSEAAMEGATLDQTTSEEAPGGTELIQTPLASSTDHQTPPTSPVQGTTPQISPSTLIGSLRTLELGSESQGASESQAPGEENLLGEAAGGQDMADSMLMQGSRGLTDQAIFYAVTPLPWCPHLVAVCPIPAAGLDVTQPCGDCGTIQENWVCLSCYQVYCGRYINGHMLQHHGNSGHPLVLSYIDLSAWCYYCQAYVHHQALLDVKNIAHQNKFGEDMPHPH
The test is described as follows: ZMAL trypsin assay, HDAC6. In kind it is biochemical. The conditions noted are these: for inhibition at 10 µM: ZMAL trypsin assay. The method, then:
[28] Assays for HDAC1/6 were prepared according to: B. Heltweg , J. Trapp , M. Jung , Methods 2005, 36, 332–337; assays for HDAC8 were prepared according to: J. Senger , J. Melesina , M. Marek , C. Romier , I. Oehme , O. Witt , W. Sippl , M. Jung , J. Med. Chem. 2016, 59, 1545–1555. […]
hHDAC1/6: Activity assays were performed in OptiPlateTM-96 F black microplates (PerkinElmer). Commercial available enzymes (human recombinant HDAC1; BPS Bioscience, catalog no. 50051 and human recombinant HDAC6; BPS Bioscience, catalog no. 50006) were used. Total assay volume of 60 µL contains 42 µl of assay buffer (50 mM Tris -HCl, pH 8.0, 137 mM NaCl, 2.7 mM KCl, 1 mM MgCl2, 0.2 mM TCEP and 1 mg/mL bovine serum albumin), 10 µL of enzyme solution in assay buffer, 3 µL of increasing concentrations of inhibitors in DMSO and 5 μL of the fluorogenic substrate ZMAL (Z -(Ac)Lys-AMC) (126 μM). After incubation (90 min, 37 °C) 60 µL of stop solution, containing 5 μL Trichostatin A (TSA) (33 μM) and 10 μL trypsin (6 mg/mL) in trypsin buffer (Tris-HCl 50 mM, pH 8.0, NaCl 100 mM), were added. […]

On to `CCCC[C@H]1NC(=O)C[C@@H](/C=C/CCSC(C)=O)OC(=O)C[C@H](O)[C@@H]([C@@H](C)CC)NC(=O)[C@@H](C)NC1=O` [compound 33], for which the inhibition at 10 µM is 30%.
As to `CCCC[C@H]1NC(=O)C[C@@H](/C=C/CCSC(C)=O)OC(=O)C[C@H](O[Si](C)(C)C(C)(C)C)[C@@H]([C@@H](C)CC)NC(=O)[C@@H](C)NC1=O` [compound 32], the “HDAC6 inhibition (in words)” value is listed as “not inhibited” and the inhibition at 10 µM is below 5%.
With `CCCC[C@H]1NC(=O)C[C@@H](/C=C/CCC(=O)NO)OC(=O)C[C@H](O)[C@@H]([C@@H](C)CC)NC(=O)[C@@H](C)NC1=O` [compound 8], the inhibition at 10 µM is 39%.
